SMILES strings stand for the structures. Counter-ions that a name gives are not always drawn.

For orientation: IC50 means the midpoint of a concentration-inhibition curve.

JNK1, sequence (P45983 whole entry, the tested form may be a part): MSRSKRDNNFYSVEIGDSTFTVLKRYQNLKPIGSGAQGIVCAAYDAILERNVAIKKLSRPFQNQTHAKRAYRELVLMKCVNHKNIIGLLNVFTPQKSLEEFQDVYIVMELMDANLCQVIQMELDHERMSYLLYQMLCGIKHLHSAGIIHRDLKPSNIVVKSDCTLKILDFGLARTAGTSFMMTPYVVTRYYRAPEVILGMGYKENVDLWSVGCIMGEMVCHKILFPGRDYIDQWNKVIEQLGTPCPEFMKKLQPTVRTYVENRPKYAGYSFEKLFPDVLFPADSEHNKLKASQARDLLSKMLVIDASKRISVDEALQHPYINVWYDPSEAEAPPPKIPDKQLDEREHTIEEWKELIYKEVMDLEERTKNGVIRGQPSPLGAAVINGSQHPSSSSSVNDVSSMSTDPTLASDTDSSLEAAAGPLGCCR

In this experiment the target is JNK1 (Homo sapiens (Human), UniProt P45983). Description: In Vitro JNK1 Assay (TR-FRET, phosphorylation of GST-c-Jun). It is filed as biochemical. To be noted: 0.2 nM active JNK1 kinase, 26.7 nM GST-c-Jun, 2 μM ATP, 30 min at room temperature. The procedure:
Phosphorylation of GST-c-Jun protein (amino acid residues 1-79) was measured as JNK1 activity. […] The reaction buffer contained 50 mM HEPES, pH […], 1 mM DTT, 0.1 mM Na3VO4 and 0.2 mg/mL BSA. After 30 min. incubation at room temperature, the reaction was terminated by adding buffer containing 8 mM EDTA and a polyclonal anti-phospho-c-Jun antibody (Cell Signaling #9261L), followed by an additional incubation of 30 min. at room temperature. […] Time-resolved Fluorescence Resonance Energy Transfer (TR-FRET) signals were measured 1 hr. later on the EnVision reader (Perkin Elmer). Compound potency was assessed at 10 serially diluted concentrations. Percentage of inhibition at each concentration was determined to generate an IC50 value for each compound.
Background: Time-resolved FRET reads energy transfer from a long-lived donor to a nearby acceptor.
`CC(C)(C)OC(=O)N1CCC(NC(=O)NCc2cn(-c3ccccc3)c3cc(Cl)ccc3c2=O)C1` (stereo not drawn) [Example I-183, 3-[3-(7-Chloro-4-oxo-1-phenyl-1,4-dihydro-quinolin-3-ylmethyl)-ureido]-pyrrolidine-1-carboxylic acid tert-butyl ester]: the IC50 worked out at 910 nM. This lies in the sub-micromolar range.
The figure for `O=c1c(CNc2ccnc(N3CCCCC3)n2)cn(-c2ccccc2)c2cc(Cl)ccc12` [Example I-174, 7-Chloro-1-phenyl-3-[(2-piperidin-1-yl-pyrimidin-4-ylamino)-methyl]-1H-quinolin-4-one trifluoroacetate salt] is 350 nM; for `CC(C)(C)OC(=O)N[C@H]1CC[C@H](NC(=O)NCc2cn(-c3ccccc3)c3cc(Cl)ccc3c2=O)CC1` [Example I-182, {4-[3-(7-Chloro-4-oxo-1-phenyl-1,4-dihydro-quinolin-3-ylmethyl)-ureido]-cyclohexyl}-carbamic acid tert-butyl ester] it is 700 nM.
Compound `O=c1c(CNc2nc3ccccc3s2)cn(-c2ccccc2)c2cc(Cl)ccc12` [Example I-175, 3-(Benzothiazol-2-ylaminomethyl)-7-chloro-1-phenyl-1H-quinolin-4-one] displayed an IC50 of 700 nM.
In turn, `CN(C)C(=O)c1c(CNC(=O)c2ccc(-c3cnco3)cc2)c(=O)c2ccc(Cl)cc2n1-c1ccccc1` [Example I-18, 7-Chloro-3-[(4-oxazol-5-yl-benzoylamino)-methyl]-4-oxo-1-phenyl-1,4-dihydro-quinoline-2-carboxylic acid dimethylamide] had an IC50 of 150 nM. Compared with the last compound, the IC50 is about 4.7-fold lower.
As for `O=C(NCc1cn(-c2ccccc2Cl)c2cc(Cl)ccc2c1=O)c1ccc(Br)nc1` [Example I-101, 6-Bromo-N-[7-chloro-1-(2-chloro-phenyl)-4-oxo-1,4-dihydro-quinolin-3-ylmethyl]-nicotinamide], the figure is 600 nM; as for `COC(=O)c1ccc(C(=O)NCc2c(-c3ncco3)n(-c3ccccc3)c3cc(Cl)ccc3c2=O)cn1` [Example I-5, 5-[(7-Chloro-2-oxazol-2-yl-4-oxo-1-phenyl-1,4-dihydro-quinolin-3-ylmethyl)-carbamoyl]-pyridine-2-carboxylic acid methyl ester], 25 nM; as for `O=C(NCc1cn(-c2ccccc2)c2cc(Cl)ccc2c1=O)c1ccc(Cl)nc1` [Example I-61, 6-Chloro-N-(7-chloro-4-oxo-1-phenyl-1,4-dihydro-quinolin-3-ylmethyl)-nicotinamide], 430 nM.
In the case of `COc1ccc(NC(=O)NCc2cn(-c3ccccc3)c3cc(Cl)ccc3c2=O)cc1` [Example I-203, 1-(7-Chloro-4-oxo-1-phenyl-1,4-dihydro-quinolin-3-ylmethyl)-3-(4-methoxy-phenyl)-urea], the IC50 turned out to be 650 nM.
As for `O=C(NCc1cn(-c2ccccc2F)c2cc(F)ccc2c1=O)c1ccc(Cl)nc1` [Example I-105, 6-Chloro-N-[7-fluoro-1-(2-fluoro-phenyl)-4-oxo-1,4-dihydro-quinolin-3-yl-methyl]-nicotinamide], the figure is 150 nM; as for `CS(=O)(=O)C1CCN(C(=O)N2CCC(NC(=O)NCc3cn(-c4ccccc4)c4cc(Cl)ccc4c3=O)CC2)CC1` [Example I-199, 1-(7-Chloro-4-oxo-1-phenyl-1,4-dihydro-quinolin-3-ylmethyl)-3-[1-(4-methanesulfonyl-piperidine-1-carbonyl)-piperidin-4-yl]-urea], 1600 nM; as for `COC(=O)c1c(CNC(=O)C(C)C)c(=O)c2ccc(Cl)cc2n1-c1ccccc1` [Example I-147, 7-Chloro-3-(isobutyrylamino-methyl)-4-oxo-1-phenyl-1,4-dihydro-quinoline-2-carboxylic acid methyl ester], 200 nM.
As for `O=C(NCc1cn(-c2ccccc2)c2cc(Cl)ccc2c1=O)N1CCOCC1` [Example I-200, Morpholine-4-carboxylic acid (7-chloro-4-oxo-1-phenyl-1,4-dihydro-quinolin-3-ylmethyl)-amide], the figure is 850 nM; as for `Cn1cnc2cc(C(=O)NCc3cn(-c4ccccc4)c4cc(Cl)ccc4c3=O)cnc21` [Example I-45, 3-Methyl-3H-imidazo[4,5-b]pyridine-6-carboxylic acid (7-chloro-4-oxo-1-phenyl-1,4-dihydro-quinolin-3-ylmethyl)-amide], 110 nM.
The figure for `COC(=O)[C@H]1CC[C@@H](NC(=O)NCc2cn(-c3ccccc3)c3cc(Cl)ccc3c2=O)CC1` [Example I-185, 4-[3-(7-Chloro-4-oxo-1-phenyl-1,4-dihydro-quinolin-3-ylmethyl)-ureido]-cyclohexanecarboxylic acid methyl ester] is 1100 nM; for `Cn1cc(C(=O)NCc2cn(-c3ccccc3)c3cc(Cl)ccc3c2=O)nn1` [Example I-53, 1-Methyl-1H-[1,2,3]triazole-4-carboxylic acid (7-chloro-4-oxo-1-phenyl-1,4-dihydro-quinolin-3-ylmethyl)-amide] it is 560 nM; for `O=C(NCc1cn(-c2ccccc2)c2cc(Cl)ccc2c1=O)c1cccc(F)c1F` [Example I-59, N-(7-Chloro-4-oxo-1-phenyl-1,4-dihydro-quinolin-3-ylmethyl)-2,3-difluoro-benzamide] it is 1700 nM.
Compound `COC(=O)c1c(CN(C)C(=O)c2ccc(S(C)(=O)=O)cc2)c(=O)c2ccc(Cl)cc2n1-c1ccccc1` [Example I-211, 7-Chloro-3-{[(4-methanesulfonyl-benzoyl)-methyl-amino]-methyl}-4-oxo-1-phenyl-1,4-dihydro-quinoline-2-carboxylic acid methyl ester] yielded an IC50 of 920 nM. This IC50 is about 1.8-fold lower than that of the compound before.
In turn, `O=C(NCc1cn(-c2ccccc2)c2cc(Cl)ccc2c1=O)c1ccc2cc[nH]c2c1` [Example I-46, 1H-Indole-6-carboxylic acid (7-chloro-4-oxo-1-phenyl-1,4-dihydro-quinolin-3-ylmethyl)-amide] gave an IC50 of 140 nM.
The figure for `CN(C)C(=O)c1c(CNC(=O)c2ccc3c(c2)OCCO3)c(=O)c2ccc(Cl)cc2n1-c1ccccc1` [Example I-21, 7-Chloro-3-{[(2,3-dihydro-benzo[1,4]dioxine-6-carbonyl)-amino]-methyl}-4-oxo-1-phenyl-1,4-dihydro-quinoline-2-carboxylic acid dimethylamide] is 460 nM; for `O=C(NCc1cn(-c2ccccc2)c2cc(Cl)ccc2c1=O)N1CCCC1` [Example I-186, Pyrrolidine-1-carboxylic acid (7-chloro-4-oxo-1-phenyl-1,4-dihydro-quinolin-3-ylmethyl)-amide] it is 1200 nM.
As for `CN1CCN(C(=O)NCc2cn(-c3ccccc3)c3cc(Cl)ccc3c2=O)CC1` [Example I-187, 4-Methyl-piperazine-1-carboxylic acid (7-chloro-4-oxo-1-phenyl-1,4-dihydro-quinolin-3-ylmethyl)-amide], the IC50 was determined as 1400 nM.
For the compound `CC(C)(C)OC(=O)N1CCC(C(=O)NCc2cn(-c3ccccc3)c3cc(Cl)ccc3c2=O)C1` (stereo not drawn) [Example I-51, 3-[(7-Chloro-4-oxo-1-phenyl-1,4-dihydro-quinolin-3-ylmethyl)-carbamoyl]-pyrrolidine-1-carboxylic acid tert-butyl ester], the IC50 came to 330 nM. Against the preceding compound, the IC50 is about 4.2-fold lower.
Compound `O=c1c(CNc2cc(N3CCCCC3)ncn2)cn(-c2ccccc2)c2cc(Cl)ccc12` [Example I-173, 7-Chloro-1-phenyl-3-[(6-piperidin-1-yl-pyrimidin-4-ylamino)-methyl]-1H-quinolin-4-one] came in with an IC50 of 140 nM.

Source of the values: patent US8501732B2, “Aminomethyl quinolone compounds” (Hoffmann-La Roche Inc., priority 2011, dated 2013).
